Results: PubChem BioAssay (NCI)
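The concentration for 50% growth inhibition is given as GI50. The concentration for full growth arrest is given as TGI.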

Experiments:
Assay in all cases: DTP human tumour cell line panel, 384-well format
[1] = system: NCI/ADR-RES ovarian
[2] = system: UACC-62 melanoma
[3] = system: SN12C renal
[4] = system: UO-31 renal
[5] = system: T-47D breast
[6] = system: A498 renal
[7] = system: MDA-MB-468 breast
[8] = system: NCI-H322M lung
[9] = system: RXF 393 renal
[10] = system: HL-60(TB) leukemia
[11] = system: LOX IMVI melanoma
[12] = system: HCC-2998 colon
[13] = system: OVCAR-5 ovarian
[14] = system: MDA-MB-231 breast
[15] = system: UACC-257 melanoma
[16] = system: MOLT-4 leukemia
[17] = system: MCF7 breast
[18] = system: IGROV1 ovarian
[19] = system: HS 578T breast
[20] = system: NCI-H23 lung
[21] = system: KM12 colon
[22] = system: SR leukemia
[23] = system: HT29 colon
[24] = system: MALME-3M melanoma
[25] = system: M14 melanoma
[26] = system: U251 glioblastoma
[27] = system: SF-539 CNS
[28] = system: OVCAR-3 ovarian
[29] = system: HCT-15 colon
[30] = system: SK-OV-3 ovarian
[31] = system: COLO 205 colon
[32] = system: OVCAR-4 ovarian
[33] = system: NCI-H522 lung
[34] = system: 786-0 renal
[35] = system: CAKI-1 renal
[36] = system: SK-MEL-5 melanoma
[37] = system: MDA-MB-435 melanoma
[38] = system: SNB-19 CNS
[39] = system: CCRF-CEM leukemia
[40] = system: HOP-62 NSCLC
[41] = system: ACHN renal
[42] = system: EKVX NSCLC
[43] = system: RPMI-8226 leukemia
[44] = system: BT-549 breast
[45] = system: NCI-H460 NSCLC
[46] = system: SF-295 CNS
[47] = system: NCI-H226 lung
[48] = system: TK-10 renal
[49] = system: SW-620 colon
[50] = system: HOP-92 NSCLC
[51] = system: SNB-75 CNS
[52] = system: SK-MEL-28 melanoma
[53] = system: A549 NSCLC
[54] = system: SF-268 CNS
[55] = system: OVCAR-8 ovarian
[56] = system: PC-3 prostate
[57] = system: K-562 leukemia
[58] = system: DU-145 prostate

Compound Cn1cc(-c2cnc3ccc4ccc(CS(=O)(=O)NCc5ccccn5)cc4c(=O)c3c2)cn1 has a GI50 [1] of 16.2 µM, a TGI [1] of 37.4 µM and a GI50 [2] of 12 µM. The TGI [2] was 24.5 µM, the GI50 [3] was 19.9 µM and the TGI [3] was 46.4 µM. For the same compound, the GI50 [4] was 35.9 µM, the TGI [4] was over 100 µM and the GI50 [5] was 15.5 µM. It also gave a TGI [5] of 30.5 µM, a GI50 [6] of 23.1 µM and a TGI [6] of over 100 µM. It also gave a GI50 [7] of 2.79 µM, a TGI [7] of 7.05 µM and a GI50 [8] of 21.3 µM. It also gave a TGI [8] of 64.6 µM, a GI50 [9] of 13.5 µM and a TGI [9] of 26.8 µM. The GI50 [10] was 13.2 µM, the TGI [10] was 26 µM and the GI50 [11] was 16.3 µM. It also gave a TGI [11] of 30.2 µM, a GI50 [12] of 15 µM and a TGI [12] of 28.7 µM. The GI50 [13] was 25.4 µM, the TGI [13] was 49.3 µM and the GI50 [14] was 15.2 µM. For the same compound, the TGI [14] was 30.4 µM, the GI50 [15] was 18.3 µM and the TGI [15] was 32.3 µM. It also gave a GI50 [16] of 3.23 µM, a TGI [16] of 10.6 µM and a GI50 [17] of 10 µM. For the same compound, the TGI [17] was 26.9 µM, the GI50 [18] was 16.7 µM and the TGI [18] was 33 µM. It also gave a GI50 [19] of 14.4 µM, a TGI [19] of 33.3 µM and a GI50 [20] of 11.6 µM. For the same compound, the TGI [20] was 24.5 µM, the GI50 [21] was 11.4 µM and the TGI [21] was 26.6 µM. It also gave a GI50 [22] of 1.91 µM, a TGI [22] of 4.24 µM and a GI50 [23] of 15.4 µM. For the same compound, the TGI [23] was 32.7 µM, the GI50 [24] was 12.3 µM and the TGI [24] was 25.4 µM. It also gave a GI50 [25] of 12.9 µM, a TGI [25] of 26.1 µM and a GI50 [26] of 21.2 µM. For the same compound, the TGI [26] was 65.3 µM, the GI50 [27] was 15.3 µM and the TGI [27] was 28.9 µM. The GI50 [28] was 14 µM, the TGI [28] was 28.1 µM and the GI50 [29] was 4.28 µM. The TGI [29] was 14.7 µM, the GI50 [30] was 13.4 µM and the TGI [30] was 31.3 µM. The GI50 [31] was 34.1 µM, the TGI [31] was over 100 µM and the GI50 [32] was 14.9 µM. For the same compound, the TGI [32] was 29.6 µM, the GI50 [33] was 13.1 µM and the TGI [33] was 25.9 µM. For the same compound, the GI50 [34] was 37.6 µM, the TGI [34] was over 100 µM and the GI50 [35] was 32.7 µM. For the same compound, the TGI [35] was over 100 µM, the GI50 [36] was 8.26 µM and the TGI [36] was 20.8 µM. It also gave a GI50 [37] of 3.77 µM, a TGI [37] of 12.2 µM and a GI50 [38] of 20.8 µM. For the same compound, the TGI [38] was 53.1 µM, the GI50 [39] was 7.51 µM and the TGI [39] was 19.8 µM. For the same compound, the GI50 [40] was 13 µM, the TGI [40] was 27.8 µM and the GI50 [41] was 24.7 µM. The TGI [41] was 98.4 µM, the GI50 [42] was 17.9 µM and the TGI [42] was 35.7 µM. For the same compound, the GI50 [43] was 5.18 µM, the TGI [43] was 17.5 µM and the GI50 [44] was 14.9 µM. It also gave a TGI [44] of 30.8 µM, a GI50 [45] of 15.1 µM and a TGI [45] of 28.9 µM. The GI50 [46] was 13.3 µM, the TGI [46] was 33.8 µM and the GI50 [47] was 13.7 µM. For the same compound, the TGI [47] was 30.5 µM, the GI50 [48] was 20.8 µM and the TGI [48] was 51.5 µM. For the same compound, the GI50 [49] was 14 µM, the TGI [49] was 28.8 µM and the GI50 [50] was 14.7 µM. It also gave a TGI [50] of 34.1 µM, a GI50 [51] of 15.9 µM and a TGI [51] of 30.2 µM. For the same compound, the GI50 [52] was 17 µM, the TGI [52] was 32 µM and the GI50 [53] was 40.4 µM. It also gave a TGI [53] of over 100 µM, a GI50 [54] of 18.4 µM and a TGI [54] of 38.6 µM. The GI50 [55] was 16.2 µM, the TGI [55] was 36.5 µM and the GI50 [56] was 20.5 µM. The TGI [56] was 42.5 µM, the GI50 [57] was 5.42 µM and the TGI [57] was 17.8 µM. The GI50 [58] was 20 µM and the TGI [58] was 51.2 µM.
